# Assay results reported in US20250304973A1, “HIGH-AFFINITY THROMBIN APTAMERS AND METHODS OF USE” (Ayass Bioscience LLC, priority 2024, published 2025).
# {CholTEG} = cholesterol attached through a triethylene glycol linker; {Sp18} = hexaethylene glycol (Sp18, PEG) spacer; {Sp9} = triethylene glycol (Sp9, TEG) spacer
# What was measured:
# [1] = target: T1, Factor II activity (Homo sapiens, UniProt P00734); assay: Factor II activity assay in human citrated plasma (ACLTOP analyzer); format: biochemical; conditions: for impact of modified aptamer on Factor II activity: 2 uM modified aptamer, 1 hour room temperature plus 2-hour incubation, versus unmodified aptamer; for reduction in Factor II activity: 2 uM, 2 h, normalized against untreated control
# T1 construct: tissue Rockland Immunochemicals, Inc R214-0050; host or cells: human citrated plasma / whole blood
# Experimental: (§1) Plasma was prepared by centrifugation for 10 min at 2000×g. In vitro activity assays were performed on ACLTOP analyzer manufactured by Instrumentation Laboratory, which is a type of coagulation analyzer commonly used in clinical laboratories to measure clotting times and assess coagulation parameters. The ACLTOP analyzer is designed to perform a wide range of coagulation tests, including Factor II activity, prothrombin time (PT), activated partial thromboplastin time (APTT), fibrinogen, and other related assays. ACLTOP analyzer uses HemosIL reagents developed by Instrumentation Laboratory company (Bedford, MA, USA) to perform coagulation tests.
# Factor II activity was measured using human plasma immunodepleted of Factor II for the quantitative determination of Factor II activity in citrated plasma based on the prothrombin time (PT) assay, for which an ACLTOP coagulation analyzer manufactured by Instrumentation Laboratory (Bedford, MA, USA) was used. To evaluate the dose-dependent activity of the aptamers in whole blood, human blood samples were collected in citrate-treated tubes. Subsequently, the blood samples were incubated at room temperature for 2 h in both the absence and presence of various concentrations of thrombin aptamers. To measure the Factor II activity using the ACLTOP coagulation analyzer, plasma was separated from the cells by centrifugation at 1500×g for 10 min at 4° C. For the dose-dependent study, concentrations of 1 uM, 2 uM, 3 uM, and 4 uM of AYA1809002 and AYA1809004 were utilized.
# (§2) Modified aptamers chemically crosslinked with TAG, PEG, and cholesterol entities at the 3′ end, were purchased from IDT (Integrated DNA Technologies, Coralville, IA, USA). The impact of modified AYA1809002 and AYA1809004 aptamers on Factor II activity, PT, and APTT was evaluated using the same protocol as was used for the unmodified aptamers. Additionally, the potential for reversal was investigated using the respective reverse complement for each aptamer.
# [2] = tested on: human citrated plasma; assay: Prothrombin time (PT) assay in human citrated plasma; format: biochemical; conditions: for impact of modified aptamer on PT: 2 uM modified aptamer, 1 hour room temperature plus 2-hour incubation, versus unmodified aptamer; for increase in PT time: 2 uM, 2 h, versus untreated control
# Experimental: as §1
# PT time was measured using RecombiPlasTin 2G for quantitative determination in human citrated plasma of PT and Fibrinogen on an ACLTOP coagulation analyzer manufactured by Instrumentation Laboratory (Bedford, MA, USA). To assess the activity of the aptamers in a dose-dependent manner in whole blood, human blood samples were collected in citrate-treated tubes. The blood samples were then incubated at room temperature for 2 h in the absence or presence of varying concentrations of the thrombin aptamers. To measure the Prothrombin Time (PT) on the ACLTOP coagulation analyzer, plasma was obtained by centrifuging the samples at 1500×g for 10 min at 4° C. For the dose dependence study, concentrations of 1 uM, 2 uM, 3 uM, and 4 uM of AYA1809002 and AYA1809004 were utilized.
# as §2
# [3] = tested on: human citrated plasma; assay: Activated partial thromboplastin time (APTT) assay in human citrated plasma; format: biochemical; conditions: for impact of modified aptamer on APTT: 2 uM modified aptamer, 1 hour room temperature plus 2-hour incubation, versus unmodified aptamer; for increase in APTT time: 2 uM, 2 h, versus untreated control
# Experimental: as §1, with “137. Sterile human blood in sodium citrate was purchased from the Rockland Immuno- chemicals, Inc (cat #R214-0050, Pottstown, PA 19464, USA). Plasma” for “Plasma”
# 140. […] APTT time was measured using the synthetic phospholipid reagent SynthASIil for quantitative determination in human citrated plasma on an ACLTOP coagulation analyzer manufactured by Instrumentation Laboratory (Bed- ford, MA, USA).
# (§3) 146. Modified aptamers chemically crosslinked with TAG, PEG, and cholesterol entities at the 3′ end, were purchased from IDT (Integrated DNA Technologies, Coralville, IA, USA). The impact of modified AYA1809002 and AYA1809004 aptamers on Factor II activity, PT, and APTT was evaluated using the same protocol as was used for the unmodified aptamers. Additionally, the potential for reversal was investigated using the respective reverse complement for each aptamer.
# [4] = in clinical trials; cited from earlier work
# [5] = Table 3, existing solution; cited from earlier work
# [6] = Table 3, existing solution; cited from earlier work; remark: listed apart in the source
# [7] = requires refrigeration; cited from earlier work
# [8] = target: thrombin over other serine proteases (Homo sapiens, UniProt P00734); conditions: Table 3, existing solution; cited from earlier work
# [9] = tested on: modified AYA1809002 and AYA1809004 aptamers; assay: Reversal potential of reverse complement on modified aptamers in human citrated plasma; format: biochemical; conditions: 5 μM reverse complement strand, additional 2-hour incubation
# Experimental: as §3
# [10] = tested on: clot-bound thrombin; conditions: in vivo studies, literature; cited from earlier work
# [11] = tested on: AYA1809002; assay: Restoration of Factor II activity and PT time with reverse complement in whole blood; format: biochemical, human; conditions: 1 uM AYA1809002 2 h room temperature in whole blood, then reverse complement; even at 1:1 ratio
# Experimental: 144. Citrated blood collected from a donor was incubated in the absence or presence of 1 uM AYA1809002 at room temperature. After 2 h incubation, the indicated concentration of the reverse complement strand was added to the citrated blood sample. After an additional incubation time of 2 h, plasma was obtained through centrifugation. Factor II activity was measured using human plasma immunodepleted of Factor II for the quantitative determination of Factor II activity in citrated plasma based on the prothrombin time (PT) assay, for which an ACLTOP coagulation analyzer manufactured by Instrumentation Laboratory (Bedford, MA, USA) was used. The PT time was measured using RecombiPlasTin 2G for quantitative determination in human citrated plasma of PT and Fibrinogen on an ACLTOP coagulation analyzer manufactured by Instrumentation Laboratory (Bedford, MA, USA).
# [12] = tested on: rat whole blood; assay: Factor II activity, PT, APPT and TT in rat whole blood; format: biochemical
# [13] = target: T2, human alpha-thrombin protein (Homo sapiens, UniProt P00734); assay: ELISA-based binding assay of biotinylated thrombin aptamers to thrombin protein; conditions: top nine enriched aptamers, biotinylated; FIG. 2A
# T2 construct: Native human alpha-thrombin protein; purchased ThermoFisher Scientific RP-43100; host or cells: native protein
# Experimental: 135. Native human alpha-thrombin protein (ThermoFisher Scientific, cat #RP-43100, Waltham, MA, USA) was added to each well of a 96-well plate (Nunc MaxiSorp flat-bottom 96-well plates, ThermoFisher Scientific, cat #44-2404-21, Waltham, MA, USA) at a concentration of 250 nM in Tris-buffered saline with a volume of 100 μL per well. The plate was then incubated at 4° C. for 16 h to allow the wells to become coated with thrombin. After removing the thrombin solution, the wells were washed and blocked using blocking buffer (20 mM Tris, 150 mM NaCl pH 7.5, 2% BSA, 0.1% Tween 20 and 100 μg/mL of sheared salmon sperm DNA) for a 1 h duration. Next, biotinylated aptamers at the indicated concentrations in a volume of 100 μL were added to the wells in an incubation buffer (20 mM Tris, 150 mM NaCl pH 7.5, 0.1% BSA, 0.1% Tween 20 and 100 μg/mL of sheared salmon sperm DNA) and incubated for 1 h at room temperature. In the competition binding assay, unlabeled aptamers were added along with the biotinylated aptamers, with the unlabeled aptamers being present in a 100-fold excess compared to the biotinylated aptamers. Following three washing steps with wash buffer (20 mM Tris, 150 mM NaCl pH 7.5, 0.1% BSA and 0.1% Tween 20), streptavidin-HRP (ThermoFisher Scientific, cat #21130, Waltham, MA, USA) was added at a dilution of 1:5000 in the incubation buffer. The plate was washed again three times to remove any unbound reagents. The bound biotinylated aptamers were then detected using 3,3′,5,5′-Tetramethylbenzidine (TMB) substrate (ThermoFisher Scientific, cat #34021, Waltham, MA, USA) following the manufacturer's instructions.
substance,measurement,setting,value
"TEG-modified AYA1809004: AYA1809004 sequence with /3Sp9/ at the 3′ end (DNA TCGTCAAGGTACGGTTGGGGGGGTGGGTGTTGACGTTGAA; DNA, 3' {Sp9}, backbone and methylation of C not given here)",impact of modified aptamer on Factor II activity,[1],noticeable inhibition
same,impact of modified aptamer on PT,[2],slight increase
same,impact of modified aptamer on APTT,[3],slight increase
dabigatran,reduction in Factor II activity,[1],80%
same,increase in PT time,[2],two-fold increases
same,increase in APTT time,[3],three-fold increase
same,life-threatening bleeding risks,[4],bleeding risks (′ 3.3%
same,Half-life,[5],Half-life of 12-17 hours
same,Renal Clearance,[5],~80%
same,Onset of Action: peak effect,[6],Peak effect 2-3 hours
same,shelf life,[7],shelf life 36 months
same,selectivity,[8],~300-fold selectivity
"reverse complement of AYA1809004: aptamer antidote TTCAACGTCAACACCCACCCCCCCAACCGTACCTTGACGA (DNA, backbone and methylation of C not given here)","reversal of modified aptamers' effects on Factor II activity, PT and APTT",[9],effectively restored
"HD1: first anti-thrombin DNA aptamer, 15-mer 5′-GGTTGGTGTGGTTGG-3′ binding exosite I (DNA, backbone not given here)",inhibition of clot-bound thrombin,[10],> 80%
"reverse complement of AYA1809002: aptamer antidote GCGATTGCTTCCTCCAACCTCCCAACCCCAGCAACACCGC (DNA, backbone and methylation of C not given here)",restoration of Factor II activity by reverse complement,[11],effectively restored
same,restoration of PT time by reverse complement,[11],effectively restored
same,"reversal of modified aptamers' effects on Factor II activity, PT and APTT",[9],effectively reverses the observed effects
same,neutralization of aptamer effects in rat whole blood,[12]; reverse complement strand,neutralized the observed effects
"cholesterol-modified AYA1809004: AYA1809004 sequence with /3CholTEG/ at the 3′ end; Table 2 misprints the name (DNA TCGTCAAGGTACGGTTGGGGGGGTGGGTGTTGACGTTGAA; DNA, 3' {CholTEG}, backbone and methylation of C not given here)",impact of modified aptamer on Factor II activity,[1],no significant impact
same,impact of modified aptamer on PT,[2],no significant impact
same,impact of modified aptamer on APTT,[3],no significant impact
"AYA1809007: ssDNA thrombin aptamer AGGGGCTCTAGGGTGGGTAGGATGGTGAGACCGCAGCGT (DNA, backbone and methylation of C not given here; further chemistry not fully specified)",binding to immobilized human thrombin (absorbance at 450 nm),[13],strong binding capabilities
same,reduction in Factor II activity,[1],more than 75%
same,increase in PT time,[2],two-fold increases
same,increase in APTT time,[3],three-fold increase
"PEG-modified AYA1809002: AYA1809002 sequence with /3Sp18/ at the 3′ end (DNA GCGGTGTTGCTGGGGTTGGGAGGTTGGAGGAAGCAATCGC; DNA, 3' {Sp18}, backbone and methylation of C not given here)",APPT in rat whole blood,[12]; dose-dependent manner,extend
same,Factor II activity in rat whole blood,[12]; dose-dependent manner,inhibit
same,PT in rat whole blood,[12]; dose-dependent manner,extend
same,TT in rat whole blood,[12]; dose-dependent manner,extend
"PEG-modified AYA1809004: AYA1809004 sequence with /3Sp18/ at the 3′ end (DNA TCGTCAAGGTACGGTTGGGGGGGTGGGTGTTGACGTTGAA; DNA, 3' {Sp18}, backbone and methylation of C not given here)",impact of modified aptamer on Factor II activity,[1],noticeable inhibition
same,impact of modified aptamer on PT,[2],slight increase
same,impact of modified aptamer on APTT,[3],slight increase
heparin,inhibition of clot-bound thrombin,[10],35%
